Data reported in patent US6696431B2, “26,27-homologated-20-EPI-2-alkylidene-19-nor-vitamin D compounds” (Wisconsin Alumni Research Foundation, priority 1997, dated 2004).
Marks after values point to notes of the source that are not given here.

Key:
[1] = system: vitamin D-deficient rats; experiment: Intestinal calcium transport after a single dose (Table 2); assay type: in vivo, rat; settings: single intrajugular dose 650 pmol, 24 h later, mean±SEM
Protocol: (§1) Male Holtzman strain weanling rats were obtained from the Sprague Dawley Co. (Indianapolis, Ind.) and fed the 0.47% calcium, 0.3% phosphorus diet described by Suda et al. (J. Nutr. 100, 1049-1052, 1970) for 1 week and then fed the same diet containing 0.02% calcium and 0.3% phosphorus for 2 additional weeks. At this point, they received a single intrajugular injection of the indicated dose dissolved in 0.1 ml of 95% propylene glycol/5% ethanol. Twenty-four hours later they were sacrificed and intestinal calcium transport and serum calcium were determined as described in Table 1. The dose of the compounds was 650 pmol and there were 5 animals per group. The data are expressed as mean±SEM.

[2] = system: vitamin D-deficient rats; experiment: Serum calcium (bone calcium mobilization), chronic doses for 7 days (Table 1); assay type: in vivo, rat; settings: for Serum Calcium: intraperitoneal, 24 h after last dose, mean±SEM; for bone calcium mobilization, in words: 130 and 260 pmol/day
Protocol: (§2) Male weanling rats were obtained from Sprague Dawley Co. (Indianapolis, Ind.) and fed a 0.47% calcium, 0.3% phosphorus vitamin D-deficient diet for 1 week and then given the same diet containing 0.02% calcium, 0.3% phosphorus for 2 weeks. During the last week they were given the indicated dose of compound by intraperitoneal injection in 0.1 ml 95% propylene glycol and 5% ethanol each day for 7 days. The control animals received only the 0.1 ml of 95% propylene glycol, 5% ethanol. Twenty-four hours after the last dose, the rats were sacrificed and intestinal calcium transport was determined by everted sac technique as previously described and serum calcium determined by atomic absorption spectrometry on a model 3110 Perkin Elmer instrument (Norwalk, Conn.). There were 5 rats per group and the values represent mean±SEM.

[3] = system: HL-60 cells; experiment: Differentiation of HL-60 promyelocytes to monocytes (NBT reduction); assay type: cell-based; settings: for HL-60 Differentiation ED50: concentration inducing 50% maturation, NBT reduction; for induction of differentiation of HL-60 cells to the monocyte, in words: FIG. 2; for HL-60 Differentiation Activity ratio: ratio of analog ED50 to ED50 for 1α,25-(OH)2D3
[4] = system: vitamin D-deficient rats; experiment: Intestinal calcium transport (everted sac), chronic doses for 7 days (Table 1); assay type: in vivo, rat; settings: for Intestinal Calcium Transport (S/M): intraperitoneal, 24 h after last dose, mean±SEM; for intestinal calcium transport, in words: chronic 7 days, 130 or 260 pmol/day, 1,25-(OH)2D3 at 260 pmol/day only
Protocol: as §2

[5] = system: vitamin D-deficient rats; experiment: Serum calcium (bone calcium mobilization) after a single dose (Table 2); assay type: in vivo, rat; settings: single intrajugular dose 650 pmol, 24 h later, mean±SEM
Protocol: as §1

[6] = system: Vitamin D-Deficient Rats on a Low-Calcium Diet; experiment: Bone calcium mobilization (serum Ca) in vitamin D-deficient rats on a low-calcium diet (Tables 4, 6); assay type: in vivo, rat
[7] = system: Vitamin D-Deficient Rats on a Low-Calcium Diet; experiment: Intestinal calcium transport in vitamin D-deficient rats on a low-calcium diet (Tables 4, 6); assay type: in vivo, rat
[8] = molecular target: T1, porcine intestinal vitamin D receptor (Sus scrofa, UniProt A3RGC1); experiment: Competitive binding to the porcine intestinal vitamin D receptor; settings: for EC50: concentration for 50% displacement of radiolabeled 1α,25-(OH)2D3, read-out: VDR Binding ED50; for VDR Binding ratio: ratio of analog ED50 to ED50 for 1α,25-(OH)2D3
T1 construct: from tissue; host or cells: porcine intestine
T1 sequence (A3RGC1 1-427): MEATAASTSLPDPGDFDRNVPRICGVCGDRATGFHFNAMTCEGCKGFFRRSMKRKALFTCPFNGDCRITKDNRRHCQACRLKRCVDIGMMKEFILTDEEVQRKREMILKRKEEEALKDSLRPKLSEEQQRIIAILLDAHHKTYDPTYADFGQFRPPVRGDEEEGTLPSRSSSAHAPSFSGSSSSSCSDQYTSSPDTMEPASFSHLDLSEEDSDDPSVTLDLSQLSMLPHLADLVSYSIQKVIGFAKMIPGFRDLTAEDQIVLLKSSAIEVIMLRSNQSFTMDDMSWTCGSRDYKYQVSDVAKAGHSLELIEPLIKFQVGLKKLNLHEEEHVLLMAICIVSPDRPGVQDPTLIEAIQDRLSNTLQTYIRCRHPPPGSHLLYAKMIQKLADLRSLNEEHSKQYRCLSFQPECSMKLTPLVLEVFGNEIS

[9] = 260 pmol daily for 7 days i.p., Table 4 and Table 6 panel 1
[10] = 260 pmol daily for 7 days i.p., Table 6 panel 2
[11] = 15 pmol daily for 7 days i.p., Table 4 and Table 6 panel 1
[12] = 32 pmol daily for 7 days i.p., Table 4 and Table 6 panel 1
[13] = 65 pmol daily for 7 days i.p., Table 6 panel 2

| EC50 [8] | VDR Binding ratio [8] | Compound | Intestinal Calcium Transport (S/M) [1] | Serum Calcium ([2]; 130 pmol/day for 7 days) | Serum Calcium ([2]; 260 pmol/day for 7 days) | Intestinal Calcium Transport (S/M) ([4]; 260 pmol/day for 7 days) | intestinal calcium transport, in words [4] | Serum Calcium [5] | Serum Ca (mean ± SEM) [6, 10] | Ca Transport S/M (mean ± SEM) [7, 10] | HL-60 Differentiation Activity ratio [3] | HL-60 Differentiation ED50 [3] | also measured |
| --- | --- | --- | --- | --- | --- | --- | --- | --- | --- | --- | --- | --- | --- |
|  |  | C=C1/C(=C\C=C2/CCC[C@]3(C)[C@@H]([C@H](C)CCCC(C)(C)O)CC[C@@H]23)C[C@@H](O)C[C@@H]1O [1,25-(OH)2D3, 1α,25-dihydroxyvitamin D3, reference compound] | 5.8 ± 0.3 S/M | 13.8 mg/100 ml | 7.2 ± 0.5 mg/100 ml | 6.2 ± 0.4 S/M | expected elevation | 5.7 ± 0.2 mg/100 ml | 6.3 ± 0.2^c | 5.0 ± 0.4^c S/M |  |  | HL-60 Differentiation ED50 ([3]; listed as 1α,25-(OH)2D3): 4 nM; Serum Ca (mean ± SEM) [6, 9]: 5.6 ± 0.2^c; Ca Transport S/M (mean ± SEM) [7, 9]: 7.2 ± 0.6^c S/M |
|  |  | C=C1[C@H](O)CC(=C/C=C2\CCC[C@]3(C)[C@@H]([C@H](C)CCCC(C)(C)O)CC[C@@H]23)C[C@H]1O [2-Methylene-19-Nor-1,25-(OH)2D3, 1α,25-dihydroxy-2-methylene-19-nor-vitamin D3] | 5.3 ± 0.5 S/M | 9.9 ± 0.2 mg/100 ml | 9.6 ± 0.3 mg/100 ml | 4.9 ± 0.6 S/M | no intestinal calcium transport activity | 6.4 ± 0.1 mg/100 ml |  |  |  |  | bone calcium mobilization, in words ([2]; chronic 7 days): extremely strong bone calcium mobilization; bone calcium mobilization activity relative to 1,25-(OH)2D3 (native hormone) ([2]; chronic 7 days, for the 20(S) compound at 130 pmol/day): 10-100 times; induction of differentiation of HL-60 cells to the monocyte, in words [3]: activity similar to 1,25-(OH)2D3; Intestinal Calcium Transport (S/M) ([4]; 130 pmol/day for 7 days): 5.3 ± 0.4 S/M |
|  |  | C=C1[C@H](O)CC(=C/C=C2\CCC[C@]3(C)[C@@H]([C@@H](C)CCCC(C)(C)O)CC[C@@H]23)C[C@H]1O [2-Methylene-19-Nor-20(S)-1,25-(OH)2D3, 20(S)-1α,25-dihydroxy-2-methylene-19-nor-vitamin D3] | 5.5 ± 0.6 S/M | 13.8 ± 0.5 mg/100 ml | 14.4 ± 0.6 mg/100 ml | 4.6 ± 0.7 S/M | no significant change | 8.0 ± 0.1 mg/100 ml |  |  |  |  | Serum Calcium ([2]; 260 pmol/day for 7 days, listed as 2-methylene-19-nor-20(S)-1,25-(OH)2D3): 14 mg/100 ml; bone calcium mobilization, in words ([2]; chronic 7 days): most potent compound tested; induction of differentiation of HL-60 cells to the monocyte, in words [3]: extremely potent; Intestinal Calcium Transport (S/M) ([4]; 130 pmol/day for 7 days): 5.7 ± 0.8 S/M |
| 4.3 nM | 4.9 | C=C1[C@H](O)CC(=C/C=C2\CCC[C@@]3(C)C2CCC3[C@@H](C)CCCC(O)(CC)CC)C[C@H]1O (stereo partly drawn) [Compound 35, 20(S)-1α,25-Dihydroxy-2-methylene-26,27-dihomo-19-norvitamin D3] |  |  |  |  |  |  |  |  | 0.01 |  | Serum Ca (mean ± SEM) [6, 11]: 5.3 ± 0.1^d^^1; Serum Ca (mean ± SEM) [6, 12]: 7.3 ± 0.4^d^^2; Ca Transport S/M (mean ± SEM) [7, 11]: 4.0 ± 0.4^d^^1 S/M; Ca Transport S/M (mean ± SEM) [7, 12]: 8.2 ± 0.6^d^^2 S/M |
| 29 nM | 33 | C=C1[C@H](O)CC(=C/C=C2\CCC[C@@]3(C)C2CCC3[C@@H](C)CCC=C2CCCC2)C[C@H]1O (stereo partly drawn) [Compound 45, 20(S)-26,27-dimethylene-1α-hydroxy-2-methylene-24-dehydro-19-norvitamin D3] |  |  |  |  |  |  | 10.8 ± 0.3^d^^2 | 4.3 ± 0.5^d^^2 S/M | 1.0 | 4.1 nM | Serum Ca (mean ± SEM) [6, 13]: 5.7 ± 0.1^d^^1; Ca Transport S/M (mean ± SEM) [7, 13]: 5.5 ± 0.8^d^^1 S/M |
| 15 nM | 17 | C=C1[C@H](O)CC(=C/C=C2\CCC[C@@]3(C)C2CCC3[C@@H](C)CCCC2(OC)CCCC2)C[C@H]1O (stereo partly drawn) [Compound 46, 20(S)-26,27-dimethylene-1α-hydroxy-25-methoxy-2-methylene-19-norvitamin D3] |  |  |  |  |  |  | 10.8 ± 0.3^e^^2 | 4.3 ± 0.5^e^^2 S/M | 1.1 | 4.3 nM | Serum Ca (mean ± SEM) [6, 13]: 5.7 ± 0.1^e^^1; Ca Transport S/M (mean ± SEM) [7, 13]: 5.5 ± 0.8^e^^1 S/M |
| 2.7 nM | 3.1 | C=C1[C@H](O)CC(=C/C=C2\CCC[C@@]3(C)C2CCC3[C@@H](C)CCCC2(O)CCCC2)C[C@H]1O (stereo partly drawn) [Compound 47, 20(S)-1α,25-dihydroxy-26,27-dimethylene-2-methylene-19-norvitamin D3] |  |  |  |  |  |  |  |  | 0.01 | 0.036 nM | Serum Ca (mean ± SEM) [6, 11]: 5.4 ± 0.2^d^^1; Serum Ca (mean ± SEM) [6, 12]: 6.4 ± 0.2^d^^2; Ca Transport S/M (mean ± SEM) [7, 11]: 5.6 ± 0.6^d^^1 S/M; Ca Transport S/M (mean ± SEM) [7, 12]: 5.3 ± 0.5^d^^2 S/M |
